Results taken from publication PMC11748689, “Pharmacological and structural understanding of the Trypanosoma cruzi proteasome provides key insights for developing site-specific inhibitors” (The Journal of Biological Chemistry, 2024).

How the values were obtained:
Assay type in all cases: biochemical
[1] = biological target: native T. cruzi proteasome (chymotrypsin-like activity, β5) (Trypanosoma cruzi, UniProt V5BU39+V5C017); test: Chymotrypsin-like activity assay (Proteasome-Glo), native T. cruzi proteasome
Protocol: (§1) Chymotrypsin-, trypsin-, and caspase-like activity assays were performed using a commercially available Proteasome-Glo 3-substrate system assay kit (catalog number G8532) (Promega Corporation) according to the manufacturers protocols and as previously described ([24]).
(§2) Prior to running assays, Proteasome-Glo buffer was used to reconstitute the luciferin detection reagent (containing a recombinant thermostable luciferase enzyme). The resuspended luciferin detection reagent was then mixed with Proteasome-Glo chymotrypsin-, trypsin- or caspase-like substrates (either 40 μM suc-Leu-Leu-Val-Tyr-aminoluciferin, 30 μM Z-Leu-Arg-Arg-aminoluciferin (Z is benzyloxycarbonyl) or 40 μM Z-Nle-Pro-Nle-Asp-aminoluciferin respectively (these concentrations represent 2x final assay concentrations)). These substrate mixtures were allowed to incubate at room temperature for 60 min prior to use to allow the removal of any contaminating free aminoluciferin.
(§3) When proteasome inhibitors were to be screened in the chymotrypsin, trypsin, and caspase assays, test compounds were dispensed into assay wells using an ECHO 550 acoustic dispenser (Labcyte) (final DMSO concentration 1%). Compounds were tested in either a 10-point concentration series (30 μM top final assay concentration, 1 in 3 dilution series) or a 12-point concentration series (30 μM top final assay concentration, 1 in 2.5 dilution series).
(§4) Proteasome assays were then performed as described above using Promega Proteasome-Glo 3-substrate system assay kit. […] Diluted proteasome (4 μl) was added to assay plates using an electronic multichannel pipette (Integra Biosciences Ltd) and the proteasome incubated with compound for 60 min at room temperature.
(§5) Following the 60 min incubation of proteasome and compounds, assays were initiated with the addition of 4 μl of a substrate mix (containing substrate and the luciferin detection reagent) using an electronic multichannel pipette. Final assay concentrations of substrates used were either 20 μM Suc-Leu-Leu-Val-Tyr-aminoluciferin, 15 μM Z-Leu-Arg-Arg-aminoluciferin, or 20 μM Z-Nle-Pro-Nle-Asp-aminoluciferin for chymotrypsin-, trypsin-, or caspase-like activity, respectively. Following a further 60 min assay incubation, luminescence was read using an EnVision 2102 Multilabel Reader (PerkinElmer, Inc) with 0.2 s per well reading time.
(§6) All data processing was performed using Microsoft Excel for Microsoft 365 software.
(§7) Nonlinear dose-response curve fitting was carried out using the Microsoft Excel add-in, XLfit (IDBS). Percentage inhibition data were either fitted to a standard 4-parameter logistic fit model (XLfit model 205; Equation 2) or a biphasic model (either XLfit model 300; Equation 3 or a custom biphasic model; Equation 4 (used in cases where the top and/or bottom parameters deviated from 100%/0% inhibition)).(2) y=A+(B−A)/1+(C/x)^D Where A = % inhibition at bottom, B = % inhibition at top, C = IC50, D = slope, x = inhibitor concentration and y = % inhibition.(3) y=(A/(1+10^(C−log(x))∗B))+((100−A)/(1+10^(D−log(x))∗B)) With A = % inhibition at midplateau, B = slope, C = log(IC50^A), D = log(IC50^B)).
(§8) All IC50 data generated were converted to pIC50 using Equation 5.

[2] = biological target: recombinant WT T. cruzi proteasome (trypsin-like activity, β2) (Trypanosoma cruzi, UniProt V5BCU3); test: biochemical; conditions: for IC50: mean ± SD, N = 3, read-out: pIC50, Trypsin Assay, Wild-type (converted)
Protocol: as §1, §2, §3, §4, §5, §6, §7, §8

[3] = biological target: recombinant Δβ1Δβ2 mutant T. cruzi proteasome (chymotrypsin-like activity) (Trypanosoma cruzi, UniProt V5BU39+V5C017); test: biochemical
Protocol: (§9) Point mutations were created in individual subunits using overlapping PCR from the original templates using Polh and Tn7L primers outside the genes and suitable internal primers to introduce selected mutations. For Δβ1Δβ2, β1 Thr 55, and β2 Thr 67 were both mutated to Ala, the β4^R mutant was produced by mutating Phe 24 and Ile 29 to Leu and Met respectively in β4 subunit.
as §1, §2
(§10) Proteasome assays were carried out using 384-well, white, low-volume plates (catalog number 784904) (Greiner Bio-One) at room temperature (∼23 °C) in 8 μl reaction volumes. When activity checks were to be run in the presence or absence of a fixed concentration of proteasome inhibitor, 80 nL of the inhibitor (at a concentration 100x the required final assay concentration), or 80 nL dimethylsulfoxide (DMSO), were dispensed into assay plates using an Echo 550 acoustic dispenser (Labcyte).
(§11) A 1 in 2 dilution series of the various T. cruzi proteasome samples (native, recombinant WT, β4^R mutant, and Δβ1Δβ2 mutant) were produced in assay buffer (50 mM Tris–HCl, pH 7.5, 10 mM sucrose, 5 mM MgCl2, 1 mM DTT, 2 mM ATP, 150 mM NaCl, 1 mM EDTA, and 0.05 mg/ml bovine serum albumin). Subsequently, 4 μl of the various concentrations of diluted proteasome were added to assay plates using an electronic multichannel pipette (Integra Biosciences Ltd). When kinetic read activity checks were performed (Fig. 2), proteasome final assay concentrations used were 115 μg/ml, 115 μg/ml, and 230 μg/ml native proteasome (in the chymotrypsin, trypsin, and caspase assays, respectively), and 4.1 μg/ml, 3.4 μg/ml, or 1.4 μg/ml recombinant WT proteasome (in the chymotrypsin, trypsin, and caspase assays, respectively). When activity checks were to be run in the presence or absence of a proteasome inhibitor plates containing inhibitor or DMSO control were incubated with the relevant proteasome sample for 60 min at room temperature (this step was not included in activity check experiments where compounds were not used).
(§12) Following the 60 min incubation of proteasome and compound (if required), assays were initiated with the addition of 4 μl of substrate mix (containing substrate and the luciferin detection reagent) using an electronic multichannel pipette. Final assay concentrations of substrates used were either 20 μM Suc-Leu-Leu-Val-Tyr-aminoluciferin, 15 μM Z-Leu-Arg-Arg-aminoluciferin, or 20 μM Z-Nle-Pro-Nle-Asp-aminoluciferin for chymotrypsin-, trypsin- or caspase-like activity respectively.
(§13) Luminescence was read either kinetically or as an endpoint read using an EnVision 2102 Multilabel Reader (PerkinElmer, Inc) with 0.2 s per well reading time. When kinetic assays were run, luminescence was read every 5 min for 90 min. Endpoint assays were run for 60 min before luminescence was read. All data processing and linear fit analyses were performed using Microsoft Excel for Microsoft 365 software (Redmond, Washington; https://www.microsoft.com/).

[4] = biological target: recombinant β4^R mutant T. cruzi proteasome (chymotrypsin-like activity) (Trypanosoma cruzi, UniProt V5BU39+V5C017, F24L/I29M); test: biochemical
Protocol: as §9, §1, §2, §10, §11, §12, §13

[5] = biological target: recombinant β4^R mutant T. cruzi proteasome (trypsin-like activity) (Trypanosoma cruzi, UniProt V5BCU3); conditions: for pIC50, Trypsin Assay, β4^R mutant: mean ± SD, N = 3
Protocol: as §9, §1, §2, §10, §11, §12, §13

[6] = biological target: recombinant WT T. cruzi proteasome (caspase-like activity, β1) (Trypanosoma cruzi, UniProt V5BHX1); test: Caspase-like activity assay (Proteasome-Glo), recombinant wild-type T. cruzi proteasome
Protocol: as §1, §2, §3, §4, §5, §6, §7, §8

[7] = native and recombinant T. cruzi proteasomes

SMILES | IC50 [1] [µM] | IC50 [2] [µM] | IC50 [3] [µM] | inhibition of chymotrypsin activity, Δβ1Δβ2 mutant, fixed concentration ([3]; 1 μM compound (Fig. 7B)) | IC50 [4] [µM] | inhibition of chymotrypsin activity, β4^R mutant, fixed concentration ([4]; 1 μM compound (Fig. 7C)) | inhibition of trypsin activity, β4^R mutant, fixed concentration ([5]; 1 μM compound (Fig. S4)) | pIC50, Trypsin Assay, β4^R mutant [5] | IC50 [6] [µM] | inhibition of the trypsin activity [2, 7] | extent of inhibition in chymotrypsin dose-response curve, Δβ1Δβ2 mutant ([3]; top of dose-response curve) | inhibition of the caspase activity [6, 7]
O=C(Nc1ccc(F)c(-c2cn3nc(-c4ccccc4)cnc3n2)c1)N1CCCC1 [DDD01012248] | 0.0309 | > 30.2 | 0.0417 | full inhibition | 2 | no notable inhibition | did not inhibit | <4.52 | > 30.2 |  |  | 
O=C(Nc1ccc(F)c(C(=O)NC2CC2)c1)c1ccc(COc2ccccc2)o1 [DDD02091966, N-(3-(cyclopropylcarbamoyl)-4-fluorophenyl)-5-(phenoxymethyl)furan-2-carboxamide] | 0.038 | > 30.2 | 0.0457 |  | > 30.2 |  |  | <4.52 | > 30.2 | no inhibition | unable to fully inhibit | no inhibition
